Results on 29 compounds are retold here after ChEMBL document CHEMBL4622969, “Design and biological evaluation of novel HIV-1 protease inhibitors with isopropanol as P1' ligand to enhance binding with S1' subsite” (Bioorg Med Chem, 2020).

Test [1] concerns the target Human immunodeficiency virus type 1 protease (Human immunodeficiency virus 1, UniProt Q72874). The test is described as follows: Inhibition of HIV-1 protease expressed in Escherichia coli using Arg-Glu(EDANS)-Ser-Gln-Asn-Tyr-Pro-Ile-Val-Gln-Lys(DABCYL)-Arg as substrate preincubated for 20 to 30 mins followed by substrate addition by FRET based assay.
In test [2] the test system is Human immunodeficiency virus 1. In words: Antiviral activity against VSV-G pseudotyped darunavir-resistant HIV1 NL4-3 V32I, L33F,I54M and I84V mutant infected in human SUPT1 cells at 100 nM infected with supernatants from virus-infected human 293T cells after 48 hrs by luciferase assay relative to control. Format: functional.
The test system of test [3] is Human immunodeficiency virus 1. The test is described as follows: Antiviral activity against VSV-G pseudotyped wild type HIV1 NL4-3 infected in human TZM-b1 cells at 100 nM infected with supernatants from virus-infected human SUPT1 cells after 48 hrs by luciferase assay relative to control. Format: functional.
The test system of test [4] is Human immunodeficiency virus 1. In words: Antiviral activity against VSV-G pseudotyped darunavir-resistant HIV1 NL4-3 harboring V32I, L33F,I54M and I84V mutant infected in human SUPT1 cells at 5 uM infected with supernatants from virus-infected human 293T cells after 48 hrs by luciferase assay relative to control. The format is functional.
The subject of test [5] is Human immunodeficiency virus 1. The test is described as follows: Antiviral activity against VSV-G pseudotyped wild type HIV1 NL4-3 infected in human TZM-b1 cells at 5 uM infected with supernatants from virus-infected human SUPT1 cells after 48 hrs by luciferase assay relative to control. Format: functional.
The subject of test [6] is Human immunodeficiency virus 1. The test is described as follows: Resistance index, ratio of antiviral activity against VSV-G pseudotyped wild type HIV1 NL4-3 infected in human TZM-b1 cells infected with supernatants from virus-infected human SUPT1 cells to antiviral activity against darunavir-resistant HIV1 NL4-3 infected in human SUPT1 cells infected with supernatants from virus-infected human 293T cells at 5 uM by luciferase assay. Format: functional.

As for `C[C@@H](O)CN(C[C@@H](O)[C@H](Cc1ccccc1)NC(=O)c1ccc(O)cc1O)S(=O)(=O)c1ccc([N+](=O)[O-])cc1`, in test [1], the IC50 – broadly, the point on the concentration scale where inhibition reaches its midpoint – came out at 13.4 nM.

`COc1cc(O)c(C(=O)N[C@@H](Cc2ccccc2)[C@H](O)CN(C[C@@H](C)O)S(=O)(=O)c2ccc([N+](=O)[O-])cc2)cc1OC`: in test [1], the IC50 came out at 102 nM.

In test [1], `COc1cc(O)c(C(=O)N[C@@H](Cc2ccccc2)[C@H](O)CN(C[C@H](C)O)S(=O)(=O)c2ccc(C(F)(F)F)cc2)cc1OC` returned an IC50 of 284 nM.

Compound `COc1cc(C(=O)N[C@@H](Cc2ccccc2)[C@H](O)CN(C[C@@H](C)O)S(=O)(=O)c2ccc(C(F)(F)F)cc2)cc(OC)c1O` displayed a half-inhibitory concentration (IC50) in test [1] of 11.8 nM.

As to `C[C@H](O)CN(C[C@@H](O)[C@H](Cc1ccccc1)NC(=O)c1ccc(O)cc1O)S(=O)(=O)c1ccc([N+](=O)[O-])cc1`, half-maximal inhibition in test [1] (IC50) was put at 47.1 nM.

Compound `C[C@@H](O)CN(C[C@@H](O)[C@H](Cc1ccccc1)NC(=O)c1ccc(O)cc1O)S(=O)(=O)c1ccc(C(F)(F)F)cc1` had an IC50 in test [1] of 12.3 nM.

The compound `C[C@H](O)CN(C[C@@H](O)[C@H](Cc1ccccc1)NC(=O)c1cc(O)cc(O)c1)S(=O)(=O)c1ccc(C(F)(F)F)cc1` gave an IC50 in test [1] of 27.2 nM.

Take `CC(C)CN(C[C@@H](O)[C@H](Cc1ccccc1)NC(=O)O[C@H]1CO[C@H]2OCC[C@H]21)S(=O)(=O)c1ccc(N)cc1`: the “inhibition (INH)” value in test [2] is given as 59%; in test [3], 95%.

Take `C[C@H](O)CN(C[C@@H](O)[C@H](Cc1ccccc1)NC(=O)c1cc(O)cc(O)c1)S(=O)(=O)c1ccc([N+](=O)[O-])cc1`: in test [1], the IC50 is 37.4 nM.

Compound `C[C@H](O)CN(C[C@@H](O)[C@H](Cc1ccccc1)NC(=O)c1ccccc1O)S(=O)(=O)c1ccc([N+](=O)[O-])cc1` returned an IC50 in test [1] of 78.2 nM.

`C[C@@H](O)CN(C[C@@H](O)[C@H](Cc1ccccc1)NC(=O)c1ccc(O)c(O)c1)S(=O)(=O)c1ccc([N+](=O)[O-])cc1` showed an IC50 in test [1] of 10.3 nM.

Regarding `C[C@@H](O)CN(C[C@@H](O)[C@H](Cc1ccccc1)NC(=O)c1ccccc1O)S(=O)(=O)c1ccc([N+](=O)[O-])cc1`, inhibition in test [1] was half-maximal at 9 nM (IC50).

In the case of `COc1cc(C(=O)N[C@@H](Cc2ccccc2)[C@H](O)CN(C[C@@H](C)O)S(=O)(=O)c2ccc([N+](=O)[O-])cc2)cc(OC)c1O`, in test [1], the IC50 is 13.1 nM.

For `C[C@@H](O)CN(C[C@@H](O)[C@H](Cc1ccccc1)NC(=O)c1ccc(O)c(O)c1)S(=O)(=O)c1ccc(C(F)(F)F)cc1`, in test [1], the IC50 is 1.64 nM. Moreover, the “inhibition (INH)” value in test [4] amounted to 46%; in test [5], 66%. Besides, in test [6], the “Selectivity Index” value worked out at 1.43.

For `COc1ccc(C(=O)N[C@@H](Cc2ccccc2)[C@H](O)CN(C[C@H](C)O)S(=O)(=O)c2ccc([N+](=O)[O-])cc2)c(O)c1`, the IC50 in test [1] was found to be 505 nM.

In the case of `COc1ccc(C(=O)N[C@@H](Cc2ccccc2)[C@H](O)CN(C[C@@H](C)O)S(=O)(=O)c2ccc([N+](=O)[O-])cc2)c(O)c1`, the IC50 in test [1] is 625 nM.

`C[C@H](O)CN(C[C@@H](O)[C@H](Cc1ccccc1)NC(=O)c1ccccc1O)S(=O)(=O)c1ccc(C(F)(F)F)cc1` yielded an IC50 in test [1] of 257 nM.

`COc1cc(C(=O)N[C@@H](Cc2ccccc2)[C@H](O)CN(C[C@H](C)O)S(=O)(=O)c2ccc([N+](=O)[O-])cc2)cc(OC)c1O` returned an IC50 in test [1] of 75.8 nM.

With `C[C@H](O)CN(C[C@@H](O)[C@H](Cc1ccccc1)NC(=O)c1ccc(O)c(O)c1)S(=O)(=O)c1ccc(C(F)(F)F)cc1`, the IC50 in test [1] amounted to 6.53 nM.

`C[C@@H](O)CN(C[C@@H](O)[C@H](Cc1ccccc1)NC(=O)c1cc(O)cc(O)c1)S(=O)(=O)c1ccc([N+](=O)[O-])cc1` showed an IC50 in test [1] of 4.83 nM. In addition, the entries for the “inhibition (INH)” value in test [4] and in test [5] were 42% and 58%, respectively. The “Selectivity Index” value in test [6] was found to be 1.38.

In test [1], `C[C@@H](O)CN(C[C@@H](O)[C@H](Cc1ccccc1)NC(=O)c1cc(O)cc(O)c1)S(=O)(=O)c1ccc(C(F)(F)F)cc1` gave a concentration for half-maximal inhibition (IC50) of 2.33 nM. Besides, the results for the “inhibition (INH)” value in test [4] and in test [5] were 51% and 76%, respectively. For the same compound, in test [6], the “Selectivity Index” value was determined as 1.49.

With `COc1ccc(C(=O)N[C@@H](Cc2ccccc2)[C@H](O)CN(C[C@@H](C)O)S(=O)(=O)c2ccc(C(F)(F)F)cc2)c(O)c1`, 427 nM corresponded to half-maximal inhibition in test [1] (IC50).

For the compound `COc1cc(C(=O)N[C@@H](Cc2ccccc2)[C@H](O)CN(C[C@H](C)O)S(=O)(=O)c2ccc(C(F)(F)F)cc2)cc(OC)c1O`, the IC50 in test [1] came to 14 nM.

Turning to `C[C@H](O)CN(C[C@@H](O)[C@H](Cc1ccccc1)NC(=O)c1ccc(O)cc1O)S(=O)(=O)c1ccc(C(F)(F)F)cc1`, the IC50 in test [1] came out at 40.6 nM.

Compound `COc1ccc(C(=O)N[C@@H](Cc2ccccc2)[C@H](O)CN(C[C@H](C)O)S(=O)(=O)c2ccc(C(F)(F)F)cc2)c(O)c1` gave an IC50 in test [1] of 187 nM.

`COc1cc(O)c(C(=O)N[C@@H](Cc2ccccc2)[C@H](O)CN(C[C@@H](C)O)S(=O)(=O)c2ccc(C(F)(F)F)cc2)cc1OC` gave a half-maximal inhibitory concentration (IC50) in test [1] of 61.4 nM.

`COc1cc(O)c(C(=O)N[C@@H](Cc2ccccc2)[C@H](O)CN(C[C@H](C)O)S(=O)(=O)c2ccc([N+](=O)[O-])cc2)cc1OC`: in test [1], the midpoint of inhibition, the IC50, lay at 1310 nM.

Turning to `C[C@@H](O)CN(C[C@@H](O)[C@H](Cc1ccccc1)NC(=O)c1ccccc1O)S(=O)(=O)c1ccc(C(F)(F)F)cc1`, inhibition in test [1] was half-maximal at 32.1 nM (IC50).

The compound `C[C@H](O)CN(C[C@@H](O)[C@H](Cc1ccccc1)NC(=O)c1ccc(O)c(O)c1)S(=O)(=O)c1ccc([N+](=O)[O-])cc1` had an IC50 in test [1] of 6.56 nM.
